The values that follow come from patent US20030096264A1, “Multi-parameter high throughput screening assays (MPHTS)” (Psychiatric Genomics, Inc., priority 2001, published 2003).

In this experiment the test system is stem cells isolated from rat cortex, differentiated with CNTF (astrocyte cultures). In words: Expression profile of CNTF-differentiated rat cortex stem cells treated with VIP. To be noted: 5 μM VIP, one day. It is filed as cell-based. How it is done:
VIP signature genes. Similar experiments were also performed in which cells were treated with vasoactive intestinal polypeptide (VIP), another drug useful for treating neuropsychiatric disorders. In more detail, stem cells were isolated and propagated from rat cortex. At passage 1, they were treated with 10 ng/ml ciliary neurotrophic factor (CNTF, available from R&D Systems, MN) for four days. 10 ng/ml of basic fibroblast growht factor (bFGF, R&D Systems, MN) was present in the medium on the first day of the differentiation regiment. […] Cells were then treated with 5 μM VIP (Sigma) for one day and harvested for expression profiling.
Signature genes were identified that changed expression when contacted with VIP compared to untreated cells. Each of these genes is listed below in Table 4, along with the measured expression ratio (ρ) and the GenBank Accession number for an exemplary cDNA sequence. The exemplary cDNA sequence for each gene is also provided here in the accompanying sequence listing. Accordingly, an appropriate sequence identifier is also specified in Table 4 for each listed gene.

For vasoactive intestinal polypeptide [VIP], under “vs untreated, U22399 SEQ ID NO: 163”, the “expression ratio σ: Cdk-inhibitor p57Kip2” value is −1.8. Moreover, the “expression ratio σ: Rat EGF like protein” value (AF112153 SEQ ID NO: 164) came out at 3.8. In addition, the “expression ratio σ: Rat Interferon inducdible protein 16” value (AF164040 SEQ ID NO: 168) came out at 1.8. In addition, the “expression ratio σ: similar to erythrocyte protein band 7.2” value (BC003789 SEQ ID NO: 166) was determined as 2.2. Besides, the “expression ratio σ: rat Dahl salt resistant strain clone etb” value (U02094 SEQ ID NO: 169) amounted to 1.8. The “expression ratio σ: Rat tyrosine phosphatase like protein IA-2a” value (U40682 SEQ ID NO: 167) was 2.0. Besides, the “expression ratio σ: Rat interferon induced mRNA” value (X61381 SEQ ID NO: 165) was 2.3.
